Assay results reported in patent publication US20230278972A1, “SUBSTITUTED HALOALKYL SULFONANILIDE HERBICIDES” (FMC Corporation, priority 2020, published 2023).

Assays:
Format in all cases: in vivo
[1] = test system: wheat (Triticum aestivum); test: Test A postemergence, wheat; details: Postemergence; for Wheat plant response rating: 500 g ai/ha, visual injury vs untreated controls after approx. 10 days
Method in brief: (§1)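 Greenhouse pot test in a loam–sand blend; compounds delivered in a non-phytotoxic solvent carrying a surfactant, applied either as a directed spray to soil at seeding or over seedlings 2 to 10 cm high with one to two leaves.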

[2] = test system: blackgrass (Alopecurus myosuroides); test: Test A postemergence, blackgrass; details: Postemergence, 0 to 100 scale (0 no effect, 100 complete control); for Blackgrass plant response rating: 500 g ai/ha, visual injury vs untreated controls after approx. 10 days
Method in brief: (§2)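 Preemergence: seeded pots of loam plus sand received a directed soil spray. Postemergence: seedlings at one to two leaves, 2 to 10 cm high, were oversprayed. Each compound was formulated in a non-phytotoxic solvent mix that included a surfactant.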

[3] = test system: corn (Zea mays); test: Test A postemergence, corn; details: Postemergence; for Corn plant response rating: 500 g ai/ha, visual injury vs untreated controls after approx. 10 days
Method in brief: as §2

[4] = test system: Ryegrass, Italian (Italian ryegrass, Lolium multiflorum); test: Test A postemergence, Ryegrass, Italian; details: Postemergence; for Ryegrass, Italian plant response rating: 500 g ai/ha, visual injury vs untreated controls after approx. 10 days
Method in brief: as §2

[5] = test system: pigweed (Amaranthus retroflexus); test: Test A postemergence, pigweed; details: Postemergence; for Pigweed plant response rating: 500 g ai/ha, visual injury vs untreated controls after approx. 10 days
Method in brief: as §2

[6] = test system: barnyardgrass (Echinochloa crus-galli); test: Test A postemergence, barnyardgrass; details: Postemergence, 0 to 100 scale (0 no effect, 100 complete control); for Barnyardgrass plant response rating: 500 g ai/ha, visual injury vs untreated controls after approx. 10 days
Method in brief: as §1

[7] = test system: Foxtail, Giant (giant foxtail, Setaria faberi); test: Test A preemergence, Foxtail, Giant; details: Preemergence; for Foxtail, Giant plant response rating: visual injury on 0 to 100 scale (0 no effect, 100 complete control), approximately 10 days; for Plant response rating, Foxtail, Giant: 0 to 100 scale (0 no effect, 100 complete control)
Method in brief: as §2

[8] = test system: barnyardgrass (Echinochloa crus-galli); test: Test A preemergence, barnyardgrass; details: Preemergence; for Barnyardgrass plant response rating: visual injury on 0 to 100 scale (0 no effect, 100 complete control), approximately 10 days; for Plant response rating, Barnyardgrass: 0 to 100 scale (0 no effect, 100 complete control)
Method in brief: as §2

[9] = test system: Ryegrass, Italian (Italian ryegrass, Lolium multiflorum); test: Test A preemergence, Ryegrass, Italian; details: Preemergence; for Ryegrass, Italian plant response rating: visual injury on 0 to 100 scale (0 no effect, 100 complete control), approximately 10 days; for Plant response rating, Ryegrass, Italian: 0 to 100 scale (0 no effect, 100 complete control)
Method in brief: as §2

[10] = test system: kochia (Bassia scoparia); test: Test A preemergence, kochia; details: Preemergence; for Kochia plant response rating: visual injury on 0 to 100 scale (0 no effect, 100 complete control), approximately 10 days; for Plant response rating, Kochia: 0 to 100 scale (0 no effect, 100 complete control)
Method in brief: as §2

[11] = test system: pigweed (Amaranthus retroflexus); test: Test A preemergence, pigweed; details: for Pigweed plant response rating: visual injury on 0 to 100 scale (0 no effect, 100 complete control), approximately 10 days; for Plant response rating, Pigweed: 0 to 100 scale (0 no effect, 100 complete control)
Method in brief: as §1

[12] = test system: galium (catchweed bedstraw, Galium aparine); test: Test A postemergence, galium; details: Postemergence; for Galium plant response rating: 500 g ai/ha, visual injury vs untreated controls after approx. 10 days
Method in brief: as §1

[13] = test system: ragweed (common ragweed, Ambrosia artemisiifolia); test: Test A postemergence, ragweed; details: Postemergence; for Ragweed plant response rating: 500 g ai/ha, visual injury vs untreated controls after approx. 10 days
Method in brief: as §2

[14] = test system: Foxtail, Giant (giant foxtail, Setaria faberi); test: Test A postemergence, Foxtail, Giant; details: Postemergence; for Foxtail, Giant plant response rating: 500 g ai/ha, visual injury vs untreated controls after approx. 10 days
Method in brief: as §2

[15] = test system: ragweed (common ragweed, Ambrosia artemisiifolia); test: Test A preemergence, ragweed; details: Preemergence; for Ragweed plant response rating: visual injury on 0 to 100 scale (0 no effect, 100 complete control), approximately 10 days; for Plant response rating, Ragweed: 0 to 100 scale (0 no effect, 100 complete control)
Method in brief: as §2

[16] = test system: kochia (Bassia scoparia); test: Test A postemergence, kochia; details: Postemergence; for Kochia plant response rating: 500 g ai/ha, visual injury vs untreated controls after approx. 10 days
Method in brief: as §2

[17] = 125 g ai/ha, visual injury approx. 10 days, 0 to 100 scale (0 no effect, 100 complete control)
[18] = 0 to 100 scale (0 no effect, 100 complete control)
[19] = 125 g ai/ha, visual injury approx. 10 days
[20] = 31 g ai/ha, visual injury on 0 to 100 scale (0 no effect, 100 complete control), approx. 10 days
[21] = 31 g ai/ha, visual injury, approx. 10 days
[22] = 1000 g ai/ha, visual injury, 0 to 100 scale (0 no effect, 100 complete control), approx. 10 days
[23] = 1000 g ai/ha, visual injury, approx. 10 days
[24] = 125 g ai/ha, 0 to 100 scale (0 no effect, 100 complete control)
[25] = 125 g ai/ha, visual injury, approx. 10 days

Cc1cc(C)c(N(S(C)(=O)=O)S(=O)(=O)C(F)(F)F)cc1-c1cc(Cl)nn(C)c1=O [Compound 46]
Plant response rating, Wheat [1, 17]: 0 | Wheat plant response rating [1, 18]: 50 | Plant response rating, Blackgrass [2, 19]: 0 | Blackgrass plant response rating [2]: 0 | Plant response rating, Corn [3, 17]: 0 | Corn plant response rating [3, 18]: 0 | Plant response rating, Ryegrass, Italian [4, 17]: 0 | Ryegrass, Italian plant response rating [4, 18]: 0 | Plant response rating, Pigweed [5, 17]: 0 | Pigweed plant response rating [5, 18]: 0 | Plant response rating, Barnyardgrass [6, 19]: 0 | Barnyardgrass plant response rating [6]: 0 | Foxtail, Giant plant response rating ([7]; 125 g ai/ha): 90 | Plant response rating, Foxtail, Giant ([7]; 500 g ai/ha): 90 | Barnyardgrass plant response rating ([8]; 125 g ai/ha): 0 | Plant response rating, Barnyardgrass ([8]; 500 g ai/ha): 70 | Ryegrass, Italian plant response rating ([9]; 125 g ai/ha): 50 | Plant response rating, Ryegrass, Italian ([9]; 500 g ai/ha): 80 | Kochia plant response rating ([10]; 125 g ai/ha): 0 | Plant response rating, Kochia ([10]; 500 g ai/ha): 0 | Pigweed plant response rating ([11]; 125 g ai/ha): 0 | Plant response rating, Pigweed ([11]; 500 g ai/ha): 50 | Plant response rating, Galium [12, 17]: 0 | Galium plant response rating [12, 18]: 0 | Plant response rating, Ragweed [13, 17]: 0 | Ragweed plant response rating [13, 18]: 0 | Plant response rating, Foxtail, Giant [14, 17]: 0 | Foxtail, Giant plant response rating [14, 18]: 0 | Ragweed plant response rating ([15]; 125 g ai/ha): 0 | Plant response rating, Ragweed ([15]; 500 g ai/ha): 0 | Plant response rating, Kochia [16, 17]: 0 | Kochia plant response rating [16, 18]: 0

COC1CCN(C(=O)c2cc(NS(=O)(=O)C(F)(F)F)c(C)cc2C)C1 (stereo not shown) [Compound 113]
Plant response rating, Wheat [1, 20]: 0 | Plant response rating, Wheat [1, 17]: 20 | Plant response rating, Blackgrass ([2]; 31 g ai/ha): 0 | Plant response rating, Blackgrass [2, 19]: 0 | Plant response rating, Corn [3, 20]: 0 | Plant response rating, Corn [3, 17]: 0 | Plant response rating, Ryegrass, Italian [4, 20]: 20 | Plant response rating, Ryegrass, Italian [4, 17]: 50 | Plant response rating, Pigweed [5, 20]: 80 | Plant response rating, Pigweed [5, 17]: 90 | Plant response rating, Barnyardgrass ([6]; 31 g ai/ha): 20 | Plant response rating, Barnyardgrass [6, 19]: 80 | Plant response rating, Foxtail, Giant [7, 21]: 10 | Foxtail, Giant plant response rating ([7]; 125 g ai/ha): 60 | Plant response rating, Barnyardgrass [8, 21]: 0 | Barnyardgrass plant response rating ([8]; 125 g ai/ha): 20 | Plant response rating, Ryegrass, Italian [9, 21]: 0 | Ryegrass, Italian plant response rating ([9]; 125 g ai/ha): 80 | Plant response rating, Kochia [10, 21]: 10 | Kochia plant response rating ([10]; 125 g ai/ha): 50 | Plant response rating, Pigweed [11, 21]: 30 | Pigweed plant response rating ([11]; 125 g ai/ha): 90 | Plant response rating, Galium [12, 20]: 70 | Plant response rating, Galium [12, 17]: 80 | Plant response rating, Ragweed [13, 20]: 80 | Plant response rating, Ragweed [13, 17]: 90 | Plant response rating, Foxtail, Giant [14, 20]: 0 | Plant response rating, Foxtail, Giant [14, 17]: 30 | Plant response rating, Ragweed [15, 21]: 0 | Ragweed plant response rating ([15]; 125 g ai/ha): 60 | Plant response rating, Kochia [16, 20]: 10 | Plant response rating, Kochia [16, 17]: 50

COc1cc(Cl)c(NS(=O)(=O)C(F)(F)F)cc1C(=O)N1CCOCC1 [Compound 258]
Plant response rating, Wheat [1, 22]: 30 | Plant response rating, Blackgrass [2, 23]: 50 | Plant response rating, Corn [3, 22]: 10 | Plant response rating, Ryegrass, Italian [4, 22]: 70 | Plant response rating, Pigweed [5, 22]: 80 | Plant response rating, Barnyardgrass [6, 23]: 70 | Plant response rating, Foxtail, Giant ([7]; 1000 g ai/ha): 90 | Plant response rating, Barnyardgrass ([8]; 1000 g ai/ha): 80 | Plant response rating, Ryegrass, Italian ([9]; 1000 g ai/ha): 70 | Plant response rating, Kochia ([10]; 1000 g ai/ha): 90 | Plant response rating, Pigweed ([11]; 1000 g ai/ha): 100 | Plant response rating, Galium [12, 22]: 80 | Plant response rating, Ragweed [13, 22]: 80 | Plant response rating, Foxtail, Giant [14, 22]: 50 | Plant response rating, Ragweed ([15]; 1000 g ai/ha): 90 | Plant response rating, Kochia [16, 22]: 90

Cc1cc(F)c(C(=O)N2CCCCC2)cc1NS(=O)(=O)C(F)(F)F [Compound 211]
Plant response rating, Wheat [1, 24]: 0 | Wheat plant response rating [1, 18]: 0 | Plant response rating, Blackgrass ([2]; 125 g ai/ha): 0 | Blackgrass plant response rating [2]: 0 | Plant response rating, Corn [3, 24]: 0 | Corn plant response rating [3, 18]: 0 | Plant response rating, Ryegrass, Italian [4, 24]: 40 | Ryegrass, Italian plant response rating [4, 18]: 30 | Plant response rating, Pigweed [5, 24]: 40 | Pigweed plant response rating [5, 18]: 60 | Plant response rating, Barnyardgrass ([6]; 125 g ai/ha): 0 | Barnyardgrass plant response rating [6]: 30 | Plant response rating, Foxtail, Giant [7, 25]: 60 | Plant response rating, Foxtail, Giant ([7]; 500 g ai/ha): 90 | Plant response rating, Barnyardgrass [8, 25]: 60 | Plant response rating, Barnyardgrass ([8]; 500 g ai/ha): 90 | Plant response rating, Ryegrass, Italian [9, 25]: 50 | Plant response rating, Ryegrass, Italian ([9]; 500 g ai/ha): 70 | Plant response rating, Kochia [10, 25]: 80 | Plant response rating, Kochia ([10]; 500 g ai/ha): 90 | Plant response rating, Pigweed [11, 25]: 20 | Plant response rating, Pigweed ([11]; 500 g ai/ha): 90 | Plant response rating, Galium [12, 24]: 60 | Galium plant response rating [12, 18]: 70 | Plant response rating, Ragweed [13, 24]: 30 | Ragweed plant response rating [13, 18]: 60 | Plant response rating, Foxtail, Giant [14, 24]: 0 | Foxtail, Giant plant response rating [14, 18]: 50 | Plant response rating, Ragweed [15, 25]: 30 | Plant response rating, Ragweed ([15]; 500 g ai/ha): 80 | Plant response rating, Kochia [16, 24]: 10 | Kochia plant response rating [16, 18]: 50
